# Values of other authors as cited in PMC7529705 (Biochemistry, 2020).
# “Also recorded” adds a separate entry of the source. Where no end group is shown, it is not given here. me2a = asymmetric dimethylation (Arg)
# Test system: WDR5
# Conditions: previously reported
substance,measurement,value
"H3R2me2a: Histone H3 1–7aa peptide, asymmetrically dimethylated at Arg2 (AR(me2a)TKQTA; UniProt P68431 2-8, looked up, fragment)",Interaction with WDR5,not to interact; also recorded: does not interact
